Reference: US20260365670A1, “EGFR INHIBITORS AND USES THEREOF” (DIZAL (JIANGSU) PHARMACEUTICAL CO., LTD., priority 2022, published 2026)
pIC50: −log10 of the molar value. Like-named read-outs stand apart in the source and are kept apart here.

What was measured:
[1] = biological target: T1, EGFR (d746-750 C797S) (Homo sapiens, UniProt P00533, C797S/DEL746-750); assay: Inhibition of EGFR (d746-750 C797S) biochemical enzymatic activity (HTRF); conditions: EGFR Del19-C797S, 1 mM ATP, 1 h, room temperature, read-out: IC50 (nM) @Del19-C797S
T1 construct: purchased signalchem
How it was run: (§1)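 Enzyme preincubated with compound, then ATP (1 mM) and TK substrate-biotin (1 μM) added; 1 h RT; stopped with EDTA-containing detection mix; HTRF read (ex 320, em 615/665 nm); IC50 by 4-parameter logistic fit.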

[2] = test system: PC-9; assay: Cell proliferation assay, PC-9 cells (CellTiter-Glo, 72 hours); format: cell-based; conditions: PC9 cells, CellTiter-Glo, read-out: PC9 GI50
How it was run: (§2)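 In RPMI1640 medium (PC-9 with 10% FBS), each cell line was seeded at its own density: Ba/F3 5000 and PC-9 500 per well. A compound series was added the next day, with a time-zero viability plate read in parallel. Percent proliferation was subtracted for G0 and referenced to DMSO, and GI50 was derived by curve fitting.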

[3] = biological target: T2, EGFR L858R (Homo sapiens, UniProt P00533, L858R); assay: Inhibition of EGFR L858R biochemical enzymatic activity (HTRF); conditions: 1 mM ATP, 1 h, room temperature, read-out: IC50 (nM) @L858R
T2 construct: purchased Carna Bio
How it was run: as §1

[4] = biological target: T3, EGFR[T790M/C797S/d746-750] (Homo sapiens, UniProt P00533, C797S/DEL746-750/T790M); assay: Inhibition of EGFR[T790M/C797S/d746-750] biochemical enzymatic activity (HTRF); conditions: EGFR T790M-C797S-Del19, 1 mM ATP, 1 h, room temperature, read-out: IC50 (nM) @T790M - C797S - Del19
T3 construct: purchased Carna Bio
How it was run: as §1

[5] = biological target: T4, EGFR (C797S L858R) (Homo sapiens, UniProt P00533, C797S/L858R); assay: Inhibition of EGFR (C797S L858R) biochemical enzymatic activity (HTRF); conditions: EGFR L858-C797S, 1 mM ATP, 1 h, room temperature, read-out: IC50 (nM) @L858-C797S
T4 construct: purchased signalchem
How it was run: as §1

[6] = biological target: T5, EGFR Exon19Del (Homo sapiens, UniProt P00533, DEL746-750); assay: Inhibition of EGFR Exon19Del biochemical enzymatic activity (HTRF); conditions: EGFR Del19, 1 mM ATP, 1 h, room temperature, read-out: IC50 @Del19
T5 construct: purchased Carna Bio
How it was run: as §1

[7] = biological target: T6, EGFR Exon19Del/T790M (Homo sapiens, UniProt P00533, DEL746-750/T790M); assay: Inhibition of EGFR Exon19Del/T790M biochemical enzymatic activity (HTRF); conditions: EGFR Del19-T790M, 1 mM ATP, 1 h, room temperature, read-out: IC50 (nM) @Del19-T790M
T6 construct: purchased Carna Bio
How it was run: as §1

[8] = test system: A-431; assay: Cell proliferation GI50, A-431 cells (Table 6); format: cell-based
Procedure: [Worded in the source for another cell line; this cell line is reported under the same test.] Ba/F3 cells expressing EGFR mutations were seeded in 384-well plates at 5000 cells/well in RPMI1640 medium containing […]. PC-9 at 500 cells/well was seeded into 384-well plates in RPMI1640 medium with 10% FBS. After overnight incubation, the assay plates were dosed with compounds at a series of concentrations. Alongside dosing the assay plates, the day 0 plate was processed using CellTiter-Glo® Luminescent Cell Viability Assay (Promega) to measure the number of viable cells (G0). The assay plates were further incubated for 72 hours and the number of viable cells (G3) was measured. The percentage of proliferation was calculated as: […]=100×(G3 value of sample well−G0 value)/(G3 value of DMSO control−G0 value). The concentration of compound producing 50% proliferation inhibition (GI50) was further calculated in best-fit curves using XLFit software. N/A=not available.

[9] = test system: Ba/F3 cells expressing EGFR mutations; assay: Cell proliferation assay, Ba/F3 cells expressing EGFR mutations (CellTiter-Glo, 72 hours); format: cell-based; conditions: CellTiter-Glo
How it was run: as §2

[10] = biological target: T7, EGFR[T790M/C797S/L858R] (Homo sapiens, UniProt P00533, C797S/L858R/T790M); assay: Inhibition of EGFR[T790M/C797S/L858R] biochemical enzymatic activity (HTRF); conditions: EGFR T790M-C797S-L858R, 1 mM ATP, 1 h, room temperature, read-out: IC50 (nM) @T790M- C797S - L858R
T7 construct: purchased Carna Bio
How it was run: as §1

[11] = biological target: T8, EGFR wild type (Homo sapiens, UniProt P00533); assay: Inhibition of EGFR wild type biochemical enzymatic activity (HTRF); conditions: EGFR WT, 1 mM ATP, 1 h, room temperature, read-out: IC50 (nM) @WT
T8 construct: purchased Carna Bio
How it was run: as §1

[12] = biological target: T9, EGFR L858R/T790M (Homo sapiens, UniProt P00533, L858R/T790M); assay: Inhibition of EGFR L858R/T790M biochemical enzymatic activity (HTRF); conditions: EGFR L858R-T790M, 1 mM ATP, 1 h, room temperature, read-out: IC50 (nM) @L858R-T790M
T9 construct: purchased Carna Bio
How it was run: as §1

[13] = BaF3 cells, EGFR DEL19-C797S, read-out: DEL19-C797S/BaF3 GI50
[14] = BaF3 cells, EGFR DEL19-T790-C797S, read-out: DEL19-T790-C797S/BaF3 GI50
[15] = BaF3 cells, EGFR L858R, read-out: L858R/BaF3 GI50
[16] = BaF3 cells, EGFR L858R-C797S, read-out: L858R-C797S/BaF3 GI50
[17] = BaF3 cells, EGFR L858R-T790-C797S, read-out: L858R-T790-C797S/BaF3 GI50
[18] = BaF3 cells, EGFR L858R-T790M, read-out: L858R-T790M/BaF3 GI50
[19] = EGFR DEL19-T790M, read-out: DEL19-T790M GI50
[20] = Homo sapiens, A-431, A-431 cells
[21] = Mus musculus, BaF3, 72 h, BaF3 cells, EGFR DEL19-C797S, read-out: DEL19-C797S/BaF3 GI50
[22] = Mus musculus, BaF3, 72 h, BaF3 cells, EGFR DEL19-T790-C797S, read-out: DEL19-T790-C797S/BaF3 GI50
[23] = Mus musculus, BaF3, 72 h, BaF3 cells, EGFR L858R, read-out: L858R/BaF3 GI50
[24] = Mus musculus, BaF3, 72 h, BaF3 cells, EGFR L858R-C797S, read-out: L858R-C797S/BaF3 GI50
[25] = Mus musculus, BaF3, 72 h, BaF3 cells, EGFR L858R-T790-C797S, read-out: L858R-T790-C797S/BaF3 GI50
[26] = Mus musculus, BaF3, 72 h, BaF3 cells, EGFR L858R-T790M, read-out: L858R-T790M/BaF3 GI50
[27] = Mus musculus, BaF3, 72 h, EGFR DEL19-T790M, read-out: DEL19-T790M GI50

T9 sequence (P00533 25-1210 T790M/L858R): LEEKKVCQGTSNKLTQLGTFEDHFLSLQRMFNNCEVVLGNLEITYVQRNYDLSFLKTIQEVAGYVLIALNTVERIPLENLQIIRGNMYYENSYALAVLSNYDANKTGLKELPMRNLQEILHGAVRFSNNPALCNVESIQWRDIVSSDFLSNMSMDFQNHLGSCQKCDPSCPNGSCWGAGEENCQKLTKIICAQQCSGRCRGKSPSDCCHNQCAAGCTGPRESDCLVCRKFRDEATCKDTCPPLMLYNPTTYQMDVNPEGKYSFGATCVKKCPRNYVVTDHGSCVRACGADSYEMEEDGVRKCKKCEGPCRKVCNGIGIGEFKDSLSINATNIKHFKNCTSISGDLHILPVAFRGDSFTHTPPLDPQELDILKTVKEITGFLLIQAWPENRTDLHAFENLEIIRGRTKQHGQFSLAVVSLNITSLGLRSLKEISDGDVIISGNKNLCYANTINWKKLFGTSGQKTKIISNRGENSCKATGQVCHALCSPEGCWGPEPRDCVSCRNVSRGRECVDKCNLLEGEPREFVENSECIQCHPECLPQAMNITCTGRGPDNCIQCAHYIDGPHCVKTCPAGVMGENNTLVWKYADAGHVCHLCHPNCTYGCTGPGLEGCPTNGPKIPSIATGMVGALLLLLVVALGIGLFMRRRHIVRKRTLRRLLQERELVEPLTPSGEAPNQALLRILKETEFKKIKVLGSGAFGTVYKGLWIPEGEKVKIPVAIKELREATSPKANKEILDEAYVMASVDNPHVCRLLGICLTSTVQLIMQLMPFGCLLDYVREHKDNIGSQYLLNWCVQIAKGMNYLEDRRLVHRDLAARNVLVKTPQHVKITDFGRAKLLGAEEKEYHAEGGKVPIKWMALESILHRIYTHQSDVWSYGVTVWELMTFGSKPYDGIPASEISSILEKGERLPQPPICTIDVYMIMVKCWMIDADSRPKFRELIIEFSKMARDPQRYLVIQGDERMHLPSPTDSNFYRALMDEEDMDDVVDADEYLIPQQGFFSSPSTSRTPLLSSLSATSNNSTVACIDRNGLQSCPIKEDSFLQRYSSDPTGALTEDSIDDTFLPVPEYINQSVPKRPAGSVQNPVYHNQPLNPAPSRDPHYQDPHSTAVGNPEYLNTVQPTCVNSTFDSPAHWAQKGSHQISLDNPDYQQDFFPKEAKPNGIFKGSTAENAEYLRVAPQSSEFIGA
T3 sequence (P00533 with tags, fused parts or gaps DEL746-750/T790M/C797S limits assumed): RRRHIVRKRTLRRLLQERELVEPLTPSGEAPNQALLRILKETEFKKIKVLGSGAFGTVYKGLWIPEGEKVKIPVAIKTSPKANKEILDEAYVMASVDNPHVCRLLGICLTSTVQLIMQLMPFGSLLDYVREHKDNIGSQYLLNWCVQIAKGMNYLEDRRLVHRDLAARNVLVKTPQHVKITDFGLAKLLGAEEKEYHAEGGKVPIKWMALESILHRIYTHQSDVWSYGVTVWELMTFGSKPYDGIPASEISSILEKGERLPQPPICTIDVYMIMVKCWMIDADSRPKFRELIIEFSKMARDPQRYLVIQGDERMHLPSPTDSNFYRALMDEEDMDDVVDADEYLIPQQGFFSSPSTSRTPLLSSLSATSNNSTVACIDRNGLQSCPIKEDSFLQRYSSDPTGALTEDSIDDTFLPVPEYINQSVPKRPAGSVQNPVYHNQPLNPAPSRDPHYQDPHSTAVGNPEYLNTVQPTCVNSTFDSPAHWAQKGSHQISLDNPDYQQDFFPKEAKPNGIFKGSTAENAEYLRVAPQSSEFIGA
T2 sequence (P00533 25-1210 L858R): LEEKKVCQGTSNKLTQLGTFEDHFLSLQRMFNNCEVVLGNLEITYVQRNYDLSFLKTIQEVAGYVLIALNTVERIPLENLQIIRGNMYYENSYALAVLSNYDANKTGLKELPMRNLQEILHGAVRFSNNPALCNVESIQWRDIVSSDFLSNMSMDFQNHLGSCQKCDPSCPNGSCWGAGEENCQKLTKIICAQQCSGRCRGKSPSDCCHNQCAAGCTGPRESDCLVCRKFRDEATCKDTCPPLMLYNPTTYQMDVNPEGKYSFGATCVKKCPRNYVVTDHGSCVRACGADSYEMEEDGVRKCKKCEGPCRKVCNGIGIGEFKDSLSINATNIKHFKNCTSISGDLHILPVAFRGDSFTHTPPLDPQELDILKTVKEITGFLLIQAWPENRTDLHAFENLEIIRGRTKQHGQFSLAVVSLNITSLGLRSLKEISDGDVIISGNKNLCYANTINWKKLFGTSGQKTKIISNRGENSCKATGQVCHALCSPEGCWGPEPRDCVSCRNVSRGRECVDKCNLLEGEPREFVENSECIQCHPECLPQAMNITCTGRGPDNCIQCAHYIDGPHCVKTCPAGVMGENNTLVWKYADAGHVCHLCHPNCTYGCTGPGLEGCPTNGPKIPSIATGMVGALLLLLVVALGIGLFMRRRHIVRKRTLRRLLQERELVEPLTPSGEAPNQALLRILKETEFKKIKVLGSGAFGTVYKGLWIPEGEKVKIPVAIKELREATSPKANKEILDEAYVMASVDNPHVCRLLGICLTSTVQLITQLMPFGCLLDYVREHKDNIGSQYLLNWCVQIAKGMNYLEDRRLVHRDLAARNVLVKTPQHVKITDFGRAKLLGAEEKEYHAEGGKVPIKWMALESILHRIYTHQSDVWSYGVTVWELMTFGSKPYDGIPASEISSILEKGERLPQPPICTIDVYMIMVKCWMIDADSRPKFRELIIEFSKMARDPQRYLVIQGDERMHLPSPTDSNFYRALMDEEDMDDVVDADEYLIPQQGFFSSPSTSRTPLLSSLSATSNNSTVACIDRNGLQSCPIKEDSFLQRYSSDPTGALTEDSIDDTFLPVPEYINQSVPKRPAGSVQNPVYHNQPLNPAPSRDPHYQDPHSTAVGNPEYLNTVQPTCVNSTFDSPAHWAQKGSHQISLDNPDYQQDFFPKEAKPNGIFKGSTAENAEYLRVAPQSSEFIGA
T7 sequence (P00533 25-1210 T790M/C797S/L858R): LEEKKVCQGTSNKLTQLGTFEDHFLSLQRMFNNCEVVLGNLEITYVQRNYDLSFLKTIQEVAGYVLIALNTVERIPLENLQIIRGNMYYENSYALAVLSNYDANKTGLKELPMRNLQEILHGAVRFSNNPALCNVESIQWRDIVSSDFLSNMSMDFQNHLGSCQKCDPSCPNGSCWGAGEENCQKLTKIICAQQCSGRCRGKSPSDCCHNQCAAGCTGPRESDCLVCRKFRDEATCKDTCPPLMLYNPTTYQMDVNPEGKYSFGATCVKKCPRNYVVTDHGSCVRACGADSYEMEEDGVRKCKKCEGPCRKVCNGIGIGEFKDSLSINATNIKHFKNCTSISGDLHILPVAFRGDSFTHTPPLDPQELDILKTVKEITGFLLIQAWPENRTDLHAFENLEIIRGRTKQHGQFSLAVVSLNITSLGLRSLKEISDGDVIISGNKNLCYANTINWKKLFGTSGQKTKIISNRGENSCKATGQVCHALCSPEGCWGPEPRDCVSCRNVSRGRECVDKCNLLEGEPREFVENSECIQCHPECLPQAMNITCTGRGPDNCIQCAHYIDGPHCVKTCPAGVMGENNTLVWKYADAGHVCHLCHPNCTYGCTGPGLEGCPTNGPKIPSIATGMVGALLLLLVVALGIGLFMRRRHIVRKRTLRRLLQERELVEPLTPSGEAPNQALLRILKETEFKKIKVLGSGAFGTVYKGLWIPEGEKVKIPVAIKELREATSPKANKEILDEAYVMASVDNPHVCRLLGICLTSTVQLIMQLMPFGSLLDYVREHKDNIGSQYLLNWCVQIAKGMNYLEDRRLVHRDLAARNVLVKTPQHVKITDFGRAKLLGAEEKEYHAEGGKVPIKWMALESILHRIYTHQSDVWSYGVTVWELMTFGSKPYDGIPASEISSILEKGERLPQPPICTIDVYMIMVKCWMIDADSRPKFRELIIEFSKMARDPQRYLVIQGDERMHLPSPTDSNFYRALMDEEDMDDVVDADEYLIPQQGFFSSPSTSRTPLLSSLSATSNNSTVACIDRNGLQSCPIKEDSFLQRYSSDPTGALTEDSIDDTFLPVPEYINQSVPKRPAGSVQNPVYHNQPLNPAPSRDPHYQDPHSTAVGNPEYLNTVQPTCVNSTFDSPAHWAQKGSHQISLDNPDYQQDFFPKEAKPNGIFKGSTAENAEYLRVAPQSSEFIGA
T1 sequence (P00533 with tags, fused parts or gaps DEL746-750/C797S limits assumed): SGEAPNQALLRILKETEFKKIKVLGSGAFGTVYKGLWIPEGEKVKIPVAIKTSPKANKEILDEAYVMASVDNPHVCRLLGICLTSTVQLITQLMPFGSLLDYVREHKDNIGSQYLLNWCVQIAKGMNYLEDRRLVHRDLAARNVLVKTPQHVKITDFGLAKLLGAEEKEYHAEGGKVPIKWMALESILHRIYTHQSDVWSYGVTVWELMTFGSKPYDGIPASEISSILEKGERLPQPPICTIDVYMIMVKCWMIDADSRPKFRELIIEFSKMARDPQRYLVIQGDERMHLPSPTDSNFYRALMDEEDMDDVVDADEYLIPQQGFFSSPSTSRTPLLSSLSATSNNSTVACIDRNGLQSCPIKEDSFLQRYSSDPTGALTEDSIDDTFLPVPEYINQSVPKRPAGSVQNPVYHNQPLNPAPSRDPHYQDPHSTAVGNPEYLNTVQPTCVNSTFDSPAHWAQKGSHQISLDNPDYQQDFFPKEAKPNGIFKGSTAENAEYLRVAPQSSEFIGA

IC50 [1] [nM] | GI50 [2] [nM] | IC50 [3] [nM] | IC50 [4] [nM] | IC50 [5] [nM] | pIC50 [6] | IC50 [7] [nM] | GI50 ([8]; A-431 cells) [nM] | GI50 [9, 13] [nM] | GI50 [9, 14] [nM] | GI50 [9, 15] [nM] | GI50 [9, 16] [nM] | GI50 [9, 17] [nM] | GI50 [9, 18] [nM] | GI50 [9, 19] [nM] | IC50 [10] [nM] | IC50 [11] [nM] | IC50 [12] [nM] | GI50 ([2]; Homo sapiens, PC-9, 72 h) [nM] | GI50 [8, 20] [nM] | further results | SMILES
196 | 633 | > 5000 | 117 | > 5000 | 6.56 | 141 | 6550 | 96 | 166 | 315 | 519 | 403 | 1400 | 285 | > 5000 | > 5000 | > 5000 |  |  |  | CN1CCN(c2ccc3c(c2)nc2n3C34CCC(CN(CCOc5c(cnn5C)-c5cc(cn(C)c5=O)C(=O)N2)C3)C4)CC1 (stereo not drawn) [Example A60A, 15,21-dimethyl-6-(4-methylpiperazin-1-yl)-23-oxa-2,9,11,15,20,21,26-heptaazaheptacyclo[24.4.1.1^{1,28}.1^{13,17}.0^{2,10}.0^{3,8}.0^{18,22}]tritriaconta-3,5,7,9,13,17(33),18(22),19-octaene-12,16-dione]
1.7 |  | 10 | 3.1 | 5.3 | 8.64 | 3.5 |  |  |  |  |  |  |  |  | 3.2 | 74 | 5.1 | 2.9 | 314 | GI50 [9, 21]: 0.33 nM; GI50 [9, 22]: 1.1 nM; GI50 [9, 23]: 0.47 nM; GI50 [9, 24]: 1.4 nM; GI50 [9, 25]: 0.57 nM; GI50 [9, 26]: 2.9 nM; GI50 [9, 27]: 1.4 nM | C[C@@H]1CCCOc2c(cnn2C)-c2cc(cn(C)c2=O)C(=O)Nc2nc3ccc(N4CC5(CCN(C)CC5)C4)cc3n2C1 [Example A41]
0.95 | 3.5 | 2.9 | 1.8 | 3.1 | 8.92 | 1.8 | 284 | 0.66 | 1.3 | 2.1 | 2.8 | 1.3 | 9.6 | 1.8 | 1.8 | 8.9 | 1.8 |  |  |  | CN1CC2CN(c3ccc4nc5n(c4c3)C34CCC(CN(CCOc6c(cnn6C)-c6cc(cn(C)c6=O)C(=O)N5)C3)C4)CC2C1 (single isomer, unassigned) [Example A68B]
4.5 | 21 | 53 | 5.9 | 33 | 8.21 | 8.5 | 1010 | 0.74 | 6.8 | 12 | 8.2 | 12 | 19 | 6.9 | 6.6 | 937 | 13 |  |  |  | Cn1ncc2c1OCCN1CC3CCC(C3)(C1)n1c(nc3ccc(N4CCC(N5CCOCC5)C4)cc31)NC(=O)c1cc-2c(=O)n(C)c1 (single isomer, unassigned) [Example A104B]
14 |  | 174 | 21 | 93 | 7.68 | 22 |  |  |  |  |  |  |  |  | 100 | 4140 | 137 | 38 | 452 | GI50 [9, 21]: 2.4 nM; GI50 [9, 22]: 4.7 nM; GI50 [9, 23]: 4.5 nM; GI50 [9, 24]: 16 nM; GI50 [9, 25]: 3.6 nM; GI50 [9, 26]: 9.4 nM; GI50 [9, 27]: 6.7 nM | C[C@@H]1CCCOc2c(cnn2C)-c2cc(cn(C)c2=O)C(=O)Nc2nc3ccc(N4CCC(N5CCOCC5)C4)cc3n2C1 (stereo partly drawn) [Example A28]
12 |  | 414 | 3.4 | 167 | 7.74 | 5.7 |  |  |  |  |  |  |  |  | 32 | > 5000 | 195 | 115 | 2910 | GI50 [9, 21]: 12 nM; GI50 [9, 22]: 31 nM; GI50 [9, 23]: 79 nM; GI50 [9, 24]: 61 nM; GI50 [9, 25]: 37 nM; GI50 [9, 26]: 307 nM; GI50 [9, 27]: 59 nM | C[C@@H]1CCCOc2c(cnn2C)-c2cc(cn(C)c2=O)C(=O)Nc2nc3ccc4c(c3n2C1)CCNC4 [Example A102, (11R)-5,11,30-Trimethyl-7-oxa-4,5,13,18,24,26,30-heptaazahexacyclo[26.3.1.0^{2,6}.0^{13,25}.0^{14,23}.0^{15,20}]dotriaconta-1(32),2(6),3,14,20,22,24,28-octaene-27,31-dione]
0.97 | 5.6 | 16 | 1.7 | 7.4 | 9.03 | 1.7 | 538 | 0.71 | 2.2 | 2.7 | 3.5 | 2.8 | 11 | 2.4 | 1.8 | 148 | 2.4 |  |  |  | CN(C)C1CN(c2ccc3nc4n(c3c2)C23CCC(CN(CCOc5c(cnn5C)-c5cc(cn(C)c5=O)C(=O)N4)C2)C3)C1 (single isomer, unassigned) [Example A65B]
1.7 | 6.1 | 7.9 | 2.9 | 8.1 | 8.72 | 2.8 |  | 0.67 | 2.1 | 2.4 | 3.6 | 2.2 | 11 | 1.9 | 3.2 | 62 | 2.6 |  | 815 |  | CN(C)[C@H]1CCN(c2ccc3nc4n(c3c2)C23CCC(CN(CCOc5c(cnn5C)-c5cc(cn(C)c5=O)C(=O)N4)C2)C3)C1 (single isomer, unassigned) [Example A66B]
